Assay [1] has as its target Melatonin receptor type 1A (Homo sapiens, UniProt P48039). Nature of the assay: Binding affinity against Melatonin receptor type 1A stably expressed in NIH3T3 cells using 2-[125I]iodomelatonin. It is filed as cell-based.
In assay [2] the target is T1, Melatonin receptor type 1B (Homo sapiens, UniProt P49286).
T1 sequence (P49286 whole entry): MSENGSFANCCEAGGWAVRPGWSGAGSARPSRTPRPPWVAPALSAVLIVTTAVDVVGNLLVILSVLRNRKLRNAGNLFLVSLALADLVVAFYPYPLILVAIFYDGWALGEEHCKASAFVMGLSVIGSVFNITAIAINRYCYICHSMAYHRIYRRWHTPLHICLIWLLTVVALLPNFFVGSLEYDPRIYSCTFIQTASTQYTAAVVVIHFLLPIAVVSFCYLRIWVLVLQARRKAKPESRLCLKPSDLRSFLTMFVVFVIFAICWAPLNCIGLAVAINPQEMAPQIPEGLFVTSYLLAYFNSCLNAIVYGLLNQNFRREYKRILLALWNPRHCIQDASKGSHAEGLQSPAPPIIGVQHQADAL
Nature of the assay: Binding affinity against Melatonin receptor type 1B stably expressed in NIH3T3 cells using 2-[125I]iodomelatonin. It is filed as cell-based.

Melatonin receptor type 1A, sequence (P48039 whole entry): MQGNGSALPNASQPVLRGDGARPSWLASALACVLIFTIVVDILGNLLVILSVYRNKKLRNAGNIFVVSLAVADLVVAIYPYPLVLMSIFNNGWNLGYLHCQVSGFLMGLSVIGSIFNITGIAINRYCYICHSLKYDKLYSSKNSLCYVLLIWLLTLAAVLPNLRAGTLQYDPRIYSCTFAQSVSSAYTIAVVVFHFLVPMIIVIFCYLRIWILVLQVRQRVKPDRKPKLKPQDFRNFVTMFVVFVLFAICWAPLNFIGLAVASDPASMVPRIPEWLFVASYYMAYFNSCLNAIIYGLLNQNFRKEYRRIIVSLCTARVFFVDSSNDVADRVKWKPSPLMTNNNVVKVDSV

As to `CC(=O)NCCCc1cccc2c1C[C@@H](CCCCc1ccccc1)O2`, the inhibition constant Ki was 4 nM in assay [1] and 8 nM in assay [2].

In the case of `CCC(=O)NC[C@@H]1C[C@H]1c1cccc2c1C[C@@H](CCCCc1ccccc1)O2`, the inhibition constant Ki in assay [1] was determined as 1 nM; in assay [2], 2 nM.

Consider `CCC(=O)NCCCc1cccc2c1C[C@@H](CCCCc1ccccc1)O2`, for which the Ki amounted to 1 nM in assay [1] and 20 nM in assay [2].

Regarding `CC(=O)NC[C@@H]1C[C@H]1c1cccc2c1C[C@@H](CCCCc1ccccc1)O2`, the Ki in assay [1] amounted to 1 nM; in assay [2] it was 2 nM.

As for `O=C(NCCCc1cccc2c1C[C@@H](CCCCc1ccccc1)O2)C1CC1`, the inhibition constant (Ki) in assay [1] stood at 2 nM; in assay [2], 30 nM.

Consider `O=C(NC[C@@H]1C[C@H]1c1cccc2c1C[C@@H](CCCCc1ccccc1)O2)C1CC1`, for which the inhibition constant Ki in assay [1] stood at 1 nM; in assay [2] it was 5 nM.

For the molecule `CCNC(=O)NC[C@@H]1C[C@H]1c1cccc2c1C[C@@H](CCCCc1ccccc1)O2`, the inhibitory constant (Ki) came to 9 nM in assay [1] and 40 nM in assay [2].

Consider `CCNC(=O)NCCCc1cccc2c1C[C@@H](CCCCc1ccccc1)O2`, for which the inhibition constant Ki in assay [1] stood at 9 nM; in assay [2], 40 nM.

With `CCCC(=O)NC[C@@H]1C[C@H]1c1cccc2c1C[C@@H](CCCCc1ccccc1)O2`, the inhibition constant Ki in assay [1] and in assay [2] was 2 nM in each case.

Turning to `CC(C)C(=O)NCCCc1cccc2c1C[C@@H](CCCCc1ccccc1)O2`, the Ki turned out to be 4 nM in assay [1] and 40 nM in assay [2].

For the molecule `CC(C)C(=O)NC[C@@H]1C[C@H]1c1cccc2c1C[C@@H](CCCCc1ccccc1)O2`, the Ki in assay [1] was determined as 6 nM; in assay [2] it was 90 nM.

As for `CCNC(=O)NC[C@@H]1C[C@H]1c1c(Cl)ccc2c1C[C@@H](CCCCc1ccccc1)O2`, the Ki in assay [1] worked out at 60 nM; in assay [2] it was 90 nM.

`CCCC(=O)NCCCc1cccc2c1C[C@@H](CCCCc1ccccc1)O2`: the inhibition constant (Ki) in assay [1] was determined as 2 nM; in assay [2] it was 30 nM.

Values taken from ChEMBL document CHEMBL1142000, “(R)-2-(4-Phenylbutyl)dihydrobenzofuran derivatives as melatoninergic agents” (Bioorg Med Chem Lett, 2005).
